Experimental data taken from article PMC6151660 (Molecules : A Journal of Synthetic Chemistry and Natural …, 2017).

Test system: M. tuberculosis moxifloxacin resistant mutants (G88C, A90V, D94G in gyrase A) and H37Rv
Format: cell-based, Mycobacterium tuberculosis

Structure (SMILES)	activity in fluoroquinolone resistant strains	growth inhibition compared with moxifloxacin
Cc1cc(=O)oc2cc(OCCN3CCN(Cc4ccc(Br)cc4)CC3)ccc12 [CM12]	maintained potency in all evaluated strains	growth inhibition in similar ranges to moxifloxacin
Cc1c(C#N)c(=O)oc2cc(OCCN3CCN(Cc4ccc(Br)cc4)CC3)ccc12 [CM14]	maintained potency in all evaluated strains	growth inhibition in similar ranges to moxifloxacin
